Results reported in patent US9428732B2, “Compositions and methods for differentiating pluripotent stem cells into primitive blood cells and uses thereof” (Primorigen Biosciences, Inc., priority 2011, dated 2016).

Key:
Format in all cases: cell-based, human
ES and iPS cells [1] = test: Small molecule screen, CFU-GEMM assays of myeloid progenitors; conditions: relative to DMSO control; DEAB 10 μM, rapamycin 0.1 μM; FIG. 3D
Method: (§1) The differentiation cultures were trypsinized at the indicated time points and single-cell suspensions were generated following trypsinization. For the Colony Forming Unit (CFU) assays using methyl cellulose cultures, 25% of the cells were plated in 2 ml of MethoCult H4435 (STEMCELL Technologies, Vancouver, BC) in six-well plates. Alternatively, sorted CD45+, CD43+, CD34+, 7AAD-cells were sorted and plated at 500 cells per 2 ml Methocult media. Cells were incubated for 14 days in a humidified incubator at 37° C. with 5% CO2 and evaluated for colonies by bright-field microscopy (Zeiss (Oberkochen, Germany, www.zeiss.com) Axiovert 200 with a Zeiss Axiocam), Cells were resuspended in PBS supplemented with 2% FBS. For the lymphoid myeloid differentiation assays, either CD45+, CD43+, CD34+, 7AAD-hematopoietic progenitors, or CD45+, CD43+, CD34+, CD38−, CD90+, CD45RA− phenotypic HSCs were plated at 20-40 cells per well onto OP9 and OP9delta feeder lines for B-cell and T-cell differentiation, respectively, as previously described (Nozad Charoudeh H, Tang Y, Cheng M, Cilio C M, Jacobsen S E, Sitnicka E., Identification of an NK/T cell-restricted progenitor in adult bone marrow contributing to bone marrow- and thymic-dependent NK cell, Blood, 2010 Jul. 15; 116(2):183-92. NK cell differentiation as well as myeloid cell differentiation was also detected in this differentiation system. […]

[2] = system: hematopoietic progenitor cells differentiated from iPS cells; test: Colony Forming Unit (CFU) assay in methyl cellulose with DEAB; conditions: 10 µM DEAB; 14 days MethoCult
Method: as §1

ES and iPS cells [3] = test: Small molecule screen, FACS of cells differentiated from pluripotent stem cells; conditions: relative to DMSO control, DEAB 10 μM, rapamycin 0.1 μM
Method: Cells from the differentiation cultures were collected at time points indicated and washed in phosphate-buffered saline (PBS) supplemented with 2% FBS. Adherent cells were individualized using TrypLE (Life Technologies, Carlsbad Calif.), passed through a 27.5-gauge needle and filtered through a 40-70 μm cell strainer (BD Falcon, San Diego, Calif., www.bdbiosciences.com). Cells were treated with 7-aminoactinomycin D (7AAD) before analysis, and positive cells were gated out of results. Cells were stained with fluorescence-conjugated antibodies for the hematopoietic stem and progenitor cell markers CD45, CD43, CD34, CD38, CD90; CD45RA. Cells were analyzed on a FACS Canto (BD, Franklin Lakes, N.J., www.bd.com).
A small molecule screen was performed to identify compounds that improve the output of hematopoietic progenitor cells (HPCs; CD45+, CD43+, CD34+) and phenotypic hematopoietic stem cells (HSCs; CD45+, CD43+, CD34+, CD38−, CD90+, CD45RA−) differentiated from pluripotent stem cells. Molecules targeting pathways known or suspected of being important in hematopoiesis were screened. […] Cells were analyzed using fluorescence activated cell sorting (FACS; FIGS. 3A, 3B, and 3C) and CFU-GEMM assays (FIG. 3D). […]

[4] = system: pluripotent stem cell differentiation cultures; test: Beating cardiomyocyte colonies in differentiation cultures; conditions: cultures using DEAB; data not shown
Text: Within the mesoderm lineage we then quantified the expression of markers of the paraxial (FOXC1) and lateral plate (FOXF1, hematopoietic and cardiac precursor) mesoderm. […] This is likely the result of anterior lateral plate mesoderm formation (precursors of the heart). We saw a dramatic upregulation of the cardiogenic mesoderm marker NKX2.5 in the DMSO control at this time point (FIG. 6G, Day 12 onward).

## CCN(CC)c1ccc(C=O)cc1 [DEAB, 4-diethylaminobenzaldehyde]
ES and iPS cells [1]
  output of myeloid progenitors (CFU/BFU): increased
[2]
  levels of all four major CFU assay types (CFU-G, CFU-M, CFU-GEMM, BFU-E): measurable levels
  total number of colonies vs cells not differentiated in the presence of DEAB (DMSO control): more than double
ES and iPS cells [3]; FIG. 3C
  output of total blood cells (CD45+, CD43+): increased
ES and iPS cells [3]; FIGS. 3A and B
  output of HSCs (CD45+, CD43+, CD34+, CD38−, CD90+, CD45RA−): increased
[4]
  numbers of beating cardiomyocytes colonies: significantly reduced numbers
